Test results from publication PMC6269719, “Extraction of Antioxidant Components from Bidens pilosa Flowers and Their Uptake by Human Intestinal Caco-2 Cells” (Molecules, 2013).

Tests used:
Caco-2 cells = test: Bidirectional transport across Caco-2 cell monolayers; details: pH 7.4, up to 60 min; for Papp, apical to basolateral flux: A→B, compounds tested within EM 1 mg/mL, mannitol 50 μM, 14-day monolayers
Description: (§1) To investigate the intestinal absorption and transport properties of the three DiCQAs and three PGAs, 14-day cultured Caco-2 monolayer cells were used for the bidirectional transport study.
(§2) It was cultured in Dulbecco’s Modified Eagle Medium (DMEM medium, Hyclone, Logan, UT, USA) containing high glucose (4.5 g/L) plus 10% fetal bovine serum (Biological Industries, Beit Haemek, Israel), 1% L-glutamine and 1% penicillin-streptomycin (Hyclone) at 37 °C, 5% CO2 with constant humidity controlled environment. The medium was replaced three times a week during cell growth and differentiation. Cells used in this study were between passages 25 and 40.
(§3) After the cells in the flask grew to 90%–100% confluency, cells were trypsinized and seeded on 12 mm transwells with 0.4 µm pore polyester membrane insert (product #3460, Corning Inc., Corning, NY, USA) at a density 2 × 10^5 cells/mL. Culture medium (0.5 mL and 1.5 mL, respectively) was added into the space between the transwell and the plate. The culture was incubated at 37 °C under 5% CO2 atmosphere and the medium was changed fresh every 48 h. The transepithelial electrical resistance (TEER) was measured with Millicell-ERS epithelial Voltohmmeter (Millipore, Bedford, MA, USA), which was reflected to the tightness of intercellular junctions and only cells with TEER (in Ω/cm^2) >300 Ω/cm^2 (at 14 day) were used for permeability study.
(§4) Before conducting the permeation test, the trasnswell insert was emerged and rinsed in 25 mM HEPES (pH 7.4 Hank’s Balanced Salt Solution, HBSS) and rinsed twice at 37 °C under 5% CO2 atmosphere, each time for 30 min. The paracellular marker molecule mannitol (low permeability), propranolol (highly permeability), and EM fraction (1 mg/mL) were separately dissolved in DMSO and diluted with HBSS to final concentrations of 50 μM, 10 μM, and 1 mg/mL (at non-cytotoxic concentration), respectively. The solutions were respectively transferred into the apical and basolateral zones of the transwell insert with the other side filled up with HBSS. The same pH (7.4) was used both in apical-to-basolateral (A→B) and basolateral-to-apical (B→A) transport directions during each experiment. The whole apparatus was incubated at 37 °C under 5% CO2 atmosphere and the permeation was examined at time point 5, 15, 30, and 60 min, respectively. Permeates obtained from various direction were analyzed with HPLC and LC-MS according to the aforementioned method. The apparent permeability coefficients (Papp, cm/s) and the efflux ratio were calculated according to the literature: Papp = (V/A × C0) × (dQ/dt) where V is the volume of receiver part (0.5 mL and/or 1.5 mL).
(§5) A is the surface area of the cell monolayer (1.1 cm^2).
(§6) C0 is the initial concentration of the extract (1 mg/mL).
(§7) dQ/dt is the cumulative transport rate (mg/mL/min). Efflux ratio = Papp,B→A/Papp,A→B

[1] = as above; details: human, Caco-2, pH 7.4
Description: as §1, §2, §3, §4, §5, §6, §7

db/db mice = system: db/db mice; set-up: method as in doi:10.1016/j.jfca.2010.03.025; details: i.p., compared to the other two polyacetylenic glucosides; cited from earlier work

O=C(/C=C/c1ccc(O)c(O)c1)O[C@@H]1[C@@H](OC(=O)/C=C/c2ccc(O)c(O)c2)C[C@@](O)(C(=O)O)C[C@@H]1O [DiCQA 1, 3,4-di-O-caffeoylquinic acid]
Papp, apical to basolateral flux (Caco-2 cells): higher than the paracellular transport marker mannitol

O=C(/C=C/c1ccc(O)c(O)c1)O[C@H]1[C@H](O)C[C@](O)(C(=O)O)C[C@H]1OC(=O)/C=C/c1ccc(O)c(O)c1 [DiCQA 3, 4,5-di-O-caffeoylquinic acid]
Papp, apical to basolateral flux (Caco-2 cells): higher than the paracellular transport marker mannitol

CC#CC#CC#C/C=C/CCC(CO)O[C@@H]1O[C@H](CO)[C@@H](O)[C@H](O)[C@H]1O (stereo partly drawn) [PGA 4, 2-β-D-glucopyranosyloxy-1-hydroxy-5(E)-tridecene-7,9,11-triyne]
Papp, apical to basolateral flux (Caco-2 cells): higher than the paracellular transport marker mannitol | efflux ratio at 60 min, 1 mg/mL [1]: 32.1

CC#CC#CC#CC#CCCC(CO)O[C@@H]1O[C@H](CO)[C@@H](O)[C@H](O)[C@H]1O (stereo partly drawn) [PGA 5, 2-β-D-glucopyranosyloxy-1-hydroxytrideca-5,7,9,11-tetrayne]
Papp, apical to basolateral flux (Caco-2 cells): lower than the Papp for mannitol | Papp, basolateral to apical flux (Caco-2 cells; B→A, compound within EM 1 mg/mL): closed to that of propranolol | Increasing serum insulin, reducing blood glucose levels and glycosylated HbA1c levels (db/db mice): most effective compound

CC#CC#CC#C/C=C/CCC(CCO)O[C@@H]1O[C@H](CO)[C@@H](O)[C@H](O)[C@H]1O (stereo partly drawn) [PGA 6, 3-β-D-glucopyranosyloxy-1-hydroxy-6(E)-tetradecene-8,10,12-triyne]
Papp, apical to basolateral flux (Caco-2 cells): higher than the paracellular transport marker mannitol | efflux ratio at 60 min, 1 mg/mL [1]: 6.03

OC[C@@H](O)[C@@H](O)[C@H](O)[C@H](O)CO [mannitol, reference compound]
Papp A→B at 60 min, 50 μM [1]: 0.43 ± 0.1 ×10⁻⁶ cm/s

CC(C)NCC(O)COc1cccc2ccccc12 (centres unmarked) [propranolol, reference compound]
Papp at 60 min, 10 μM [1]: 39.4 ± 4.12 ×10⁻⁶ cm/s
